Non-standard residues stand in square brackets, D forms with d. Residues, ends and D or L forms follow the SMILES beside them. Phe(3,4-Cl2) = N[C@@H](Cc1ccc(Cl)c(Cl)c1)C(=O)O; pGlu = O=C1CC[C@@H](C(=O)O)N1
How the values were obtained:
[1] = Inhibition of Escherichia coli polymerase 3alpha/beta subunit homo dimer interaction by plate binding assay
[2] = Binding affinity to Escherichia coli polymerase 3 beta subunit homo dimer by SPR assay

| Compound | IC50 [1] [nM] | IC50 [2] [nM] |
| --- | --- | --- |
| CCCC(C)(c1ccc(OC(=O)Cc2ccc([N+](=O)[O-])cc2)cc1)c1ccc(OC(=O)Nc2ccc([N+](=O)[O-])cc2)cc1 (stereo not given) | 300000 | – |
| CC(C)C[C@H](NC(=O)[C@H](CC(=O)O)NC(=O)[C@H](CC(C)C)NC(=O)[C@@H](N)CCC(N)=O)C(=O)N[C@@H](Cc1ccccc1)C(=O)O | 2600 | 620 |
| H-IGQLSLFGV-OH | 2300 | 550 |
| CCC/C(=N\OCc1ccc(-c2ccccc2)cc1)C1C(=O)CC(C)(C2OCC(C)(C)CO2)OC1=O (stereo not given) | 270000 | – |
| NC(CCC(=O)NC(CSCC(=O)c1ccc(Br)cc1)C(=O)NCC(=O)O)C(=O)O (stereo not given) | 210000 | – |
| H-IGQADWFGV-OH | 345000 | – |
| CCC/C(=N\OC/C(Cl)=C/c1ccc(Cl)cc1)C1C(=O)CC(C)(C)CC1=O | 350000 | – |
| CCC/C(=N\OCc1ccc(-c2ccc(F)cc2)cc1)C1C(=O)CC(C)(C)C(C#N)C1=O (stereo not given) | 40000 | – |
| H-IGQADMWGV-OH | 282000 | – |
| CC(C)C[C@H](NC(=O)[C@H](CC(=O)O)NC(=O)[C@H](CC(C)C)NC(=O)[C@@H]1CCC(=O)N1)C(=O)N[C@@H](Cc1ccccc1)C(=O)O ([pGlu]LDLF-OH) | 4500 | – |
| H-IGQADLFGV-OH | 56000 | – |
| CC[C@H](C)[C@H](N)C(=O)NCC(=O)N[C@@H](CCC(N)=O)C(=O)N[C@@H](C)C(=O)N[C@@H](CC(=O)O)C(=O)N[C@@H](CCSC)C(=O)N[C@@H](Cc1ccccc1)C(=O)NCC(=O)N[C@H](C(=O)O)C(C)C | 96000 | 3000 |
| H-IGQADIFGV-OH | 315000 | – |
| H-IGQADFFGV-OH | 174000 | – |

Compounds with a lower IC50 [1], results first:

| IC50 [1] [nM] | IC50 [2] [nM] | Compound |
| --- | --- | --- |
| 34 | 117 | CC(=O)N[C@@H](CCC(N)=O)C(=O)N[C@@H](CC(C)C)C(=O)N[C@@H](CC(=O)O)C(=O)N[C@@H](CC(C)C)C(=O)N[C@@H](Cc1ccccc1Cl)C(=O)O |
| 86 | 89 | COC(=O)N[C@@H](CCC(N)=O)C(=O)N[C@@H](CC(C)C)C(=O)N[C@@H](CC(=O)O)C(=O)N[C@@H](CC(C)C)C(=O)N[C@@H](Cc1ccc(Cl)c(Cl)c1)C(=O)O |
| 27 | 20 | CC(=O)N[C@@H](CCC(N)=O)C(=O)N[C@@H](CC(C)C)C(=O)N[C@@H](CC(=O)O)C(=O)N[C@@H](CC(C)C)C(=O)N[C@@H](Cc1ccc(Cl)cc1)C(=O)O |
| 70 | 400 | CC(=O)N[C@@H](CCC(N)=O)C(=O)N[C@@H](CC(C)C)C(=O)N[C@@H](CC(=O)O)C(=O)N[C@@H](CC(C)C)C(=O)N[C@@H](Cc1ccccc1)C(=O)O |
| 67 | 337 | CC(C)C[C@H](NC(=O)[C@H](CC(=O)O)NC(=O)[C@H](CC(C)C)NC(=O)[C@H](CCC(N)=O)NC(=O)COCc1ccccc1)C(=O)N[C@@H](Cc1ccc(Cl)c(Cl)c1)C(=O)O |
| 42 | 27 | COc1ccc(C(=O)N[C@@H](CCC(N)=O)C(=O)N[C@@H](CC(C)C)C(=O)N[C@@H](CC(=O)O)C(=O)N[C@@H](CC(C)C)C(=O)N[C@@H](Cc2ccc(Cl)c(Cl)c2)C(=O)O)c(OC)c1 |
| 63 | 61 | CCC(=O)N[C@@H](CCC(N)=O)C(=O)N[C@@H](CC(C)C)C(=O)N[C@@H](CC(=O)O)C(=O)N[C@@H](CC(C)C)C(=O)N[C@@H](Cc1ccc(Cl)c(Cl)c1)C(=O)O |
| 62 | 69 | CC(C)C[C@H](NC(=O)[C@H](CC(=O)O)NC(=O)[C@H](CC(C)C)NC(=O)[C@H](CCC(N)=O)NC(=O)C(C)(C)C)C(=O)N[C@@H](Cc1ccc(Cl)c(Cl)c1)C(=O)O |
| 37 | 33 | CSCC[C@H](NC(=O)[C@H](CC(=O)O)NC(=O)[C@H](CC(C)C)NC(=O)[C@H](CCC(N)=O)NC(C)=O)C(=O)N[C@@H](Cc1ccc(Cl)c(Cl)c1)C(=O)O (Ac-QLDM[Phe(3,4-Cl2)]-OH) |
| 21 | 23 | CC(=O)N[C@@H](CCC(N)=O)C(=O)N[C@@H](CC(C)C)C(=O)N[C@@H](CC(=O)O)C(=O)N[C@@H](CC(C)C)C(=O)N[C@@H](Cc1ccc(Cl)c(Cl)c1)C(=O)O |
| 66 | 537 | CC(C)C[C@H](NC(=O)[C@H](CC(=O)O)NC(=O)[C@H](CC(C)C)NC(=O)[C@H](CCC(N)=O)NC(=O)Cc1c[nH]c2ccccc12)C(=O)N[C@@H](Cc1ccc(Cl)c(Cl)c1)C(=O)O |
| 69 | 456 | CC(C)C[C@H](NC(=O)[C@H](CC(=O)O)NC(=O)[C@H](CC(C)C)NC(=O)[C@H](CCC(N)=O)NC(=O)c1ccccc1)C(=O)N[C@@H](Cc1ccc(Cl)c(Cl)c1)C(=O)O |
| 20 | 41 | CC(C)COC(=O)N[C@@H](CCC(N)=O)C(=O)N[C@@H](CC(C)C)C(=O)N[C@@H](CC(=O)O)C(=O)N[C@@H](CC(C)C)C(=O)N[C@@H](Cc1ccc(Cl)c(Cl)c1)C(=O)O |
| 11 | 49 | CC(=O)N[C@@H](CCC(N)=O)C(=O)N[C@@H](CC(C)C)C(=O)N[C@@H](CC(=O)O)C(=O)N[C@@H](CC(C)C)C(=O)N[C@@H](Cc1cccc(Cl)c1)C(=O)O |
